Source: US7446195B2, “High affinity thiophene-based and furan-based kinase ligands” (Schering Corporation, priority 2005, dated 2008)

Biological target: CDK-2 (Homo sapiens, UniProt P24941)
Assay: CDK-2 inhibition (Table 1; fluorescence polarization displacement assay)
Type: binding
Settings: inhibitory effectiveness toward CDK-2
Summary of the method: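 Ki was measured by fluorescence polarization displacement of 50 nM BMS-Alexa Fluor647 tracer from CDK-2 ([…]) or CDK-2/cyclin A ([…]). Buffer was 10 mM Hepes pH 7.5, 150 mM NaCl, 1 mM DTT, with 15 min incubation at room temperature and read at ex 580/em 680 nm. Ki came from nonlinear regression of the displacement curves.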

O=C(Nc1ccc(C(=O)Nc2ccc(-n3cncn3)cc2)o1)c1ccncc1 [Compound 185]
IC50: ≥ 40 µM

COc1ccc(C(=O)Nc2ccc(C(=O)Nc3ccc(-n4cncn4)cc3)o2)c(C)c1 [Compound 186]
IC50: ≥ 40 µM

O=C(Nc1ccc(-n2cncn2)cc1)c1ccc(NC(=O)C2CCCCC2)o1 [Compound 187]
IC50: ≥ 40 µM

COc1ccc(C(=O)Nc2ccc(C(=O)N3CCC(c4ccccn4)C3)s2)c(C)c1 (centres unmarked) [Compound 188]
IC50: ≥ 40 µM

COc1ccc(C(=O)Nc2ccc(C(=O)N3CCC(c4ccncc4)C3)s2)c(C)c1 (centres unmarked) [Compound 189]
IC50: ≥ 40 µM

COc1ccc(C(=O)Nc2ccc(C(=O)N3CCC(c4ccccn4)C3)o2)c(C)c1 (centres unmarked) [Compound 190]
IC50: ≥ 40 µM

COc1ccc(C(=O)Nc2ccc(C(=O)N3CCC(c4ccncc4)C3)o2)c(C)c1 (centres unmarked) [Compound 191]
IC50: ≥ 40 µM

COc1ccc(C(=O)Nc2ccc(C(=O)N3CCC(Oc4cnccn4)CC3)o2)c(C)c1 [Compound 192]
IC50: ≥ 40 µM

COc1ccc(C(=O)Nc2ccc(C(=O)Nc3ccc(-n4ccnc4)cc3)o2)c(C)c1 [Compound 193]
IC50: ≥ 40 µM

O=C(Nc1ccc(C(=O)Nc2ccc(-n3cncn3)cc2)s1)c1ccncc1 [Compound 194]
IC50: ≥ 40 µM

Cn1nc(-c2cccs2)cc1NC(=O)c1ccc(C(=O)Nc2ccc(-n3cncn3)cc2)s1 [Compound 195]
IC50: ≥ 40 µM

Cn1nc(-c2ccc(Cl)cc2)cc1NC(=O)c1ccc(C(=O)Nc2ccc(-n3cncn3)cc2)s1 [Compound 196]
IC50: ≥ 40 µM

O=C(Nc1ccc(-n2cncn2)cc1)c1ccc(C(=O)Nc2cc(-c3ccco3)n[nH]2)s1 [Compound 197]
IC50: ≥ 40 µM

COc1ccc(NCc2ccc(C(=O)Nc3ccc(-n4cncn4)cc3)o2)c(C)c1 [Compound 198]
IC50: ≥ 40 µM

O=C(Nc1ccc(-n2cncn2)c(F)c1)c1ccc(C(=O)Nc2ccccc2Oc2ccccc2)s1 [Compound 199]
IC50: ≥ 40 µM

O=C(Nc1ccc(-n2cncn2)c(F)c1)c1ccc(C(=O)Nc2ccccc2OCc2ccccc2)s1 [Compound 200]
IC50: ≥ 40 µM

CCOc1ccccc1NC(=O)c1ccc(C(=O)Nc2ccc(-n3cncn3)c(F)c2)s1 [Compound 201]
IC50: ≥ 40 µM

O=C(Nc1ccc(-n2cncn2)c(F)c1)c1ccc(C(=O)Nc2ccccc2OCc2ccncc2)s1 [Compound 202]
IC50: ≥ 40 µM

O=C(Nc1ccc(-n2cncn2)c(F)c1)c1ccc(C(=O)Nc2ccccc2OC2CCCCC2)s1 [Compound 203]
IC50: ≥ 40 µM

O=C(Nc1ccc(-n2cncn2)c(F)c1)c1ccc(C(=O)Nc2ccccc2COc2ccccc2)s1 [Compound 204]
IC50: ≥ 40 µM

O=C(Nc1ccc(-n2cncn2)c(F)c1)c1ccc(C(=O)Nc2ccccc2Oc2cccnc2)s1 [Compound 205]
IC50: ≥ 40 µM

COc1ccccc1NC(=O)c1ccc(C(=O)Nc2ccc(-n3cncn3)c(F)c2)s1 [Compound 206]
IC50: ≥ 40 µM

O=C(Nc1ccc(-n2cncn2)c(F)c1)c1ccc(C(=O)Nc2ccccc2N2CCOCC2)s1 [Compound 207]
IC50: ≥ 40 µM

O=C(Nc1ccc(-n2cncn2)c(F)c1)c1ccc(C(=O)Nc2ccccc2-n2cccn2)s1 [Compound 208]
IC50: ≥ 40 µM

CN1CCN(c2ccccc2NC(=O)c2ccc(C(=O)Nc3ccc(-n4cncn4)c(F)c3)s2)CC1 [Compound 209]
IC50: ≥ 40 µM

CN1CCC(N(C)C(=O)c2ccc(C(=O)Nc3ccc(-n4cncn4)c(F)c3)o2)CC1 [Compound 210]
IC50: ≥ 40 µM

O=C(Nc1ccc(-n2cncn2)c(F)c1)c1ccc(C(=O)N2CCOCC2)o1 [Compound 211]
IC50: ≥ 40 µM

CN(C)CCNC(=O)c1ccc(C(=O)Nc2ccc(-n3cncn3)c(F)c2)o1 [Compound 212]
IC50: ≥ 40 µM

CN(C(=O)c1ccc(C(=O)Nc2ccc(-n3cncn3)c(F)c2)o1)C1CCCCC1 [Compound 213]
IC50: ≥ 40 µM

CN1CCC(NC(=O)c2ccc(C(=O)Nc3ccc(-n4cncn4)c(F)c3)o2)CC1 [Compound 214]
IC50: ≥ 40 µM

CNC(=O)c1ccc(C(=O)Nc2ccc(-n3cncn3)c(F)c2)o1 [Compound 215]
IC50: ≥ 40 µM

CN(C)C(=O)c1ccc(C(=O)Nc2ccc(-n3cncn3)c(F)c2)o1 [Compound 216]
IC50: ≥ 40 µM
